In patent publication US6362369B1, “Phthalic acid diamide derivatives fluorine-containing aniline compounds as starting material, agricultural and horticultural insecticides, and a method for application of the insecticides” (Nihon Nohyaku Co., Ltd., priority 1997, dated 2002):

What was measured:
[1] = system: diamondback moth (Plutella xylostella); assay: Insecticidal effect on diamondback moth (Test Example 1); format: in vivo; settings: for Insecticidal effect (Test Example 1), judged from mortality / Insecticidal effect, Test Example 1: diamondback moth; for Insecticidal effect (Test Example 1), judged from mortality: judged by the criterion of Test Example 1; for Insecticidal effect on diamondback moth (Test Example 1), judged grade: mortality judged according to the criterion shown in Test Example 1
How it was run: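 Oviposition by adults on Chinese cabbage seedling; immersion; air-dry; 25° C room. Count of hatched larvae at day 6 post-immersion → mortality → effect graded by criterion. Triplicate, 10 insects/group.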

[2] = system: rice leafroller (Cnaphalocrocis medinalis); assay: Insecticidal effect on rice leafroller (Test Example 3); format: in vivo; settings: 500 ppm, 25° C., humidity 70%; for Insecticidal effect (Test Example 3), judged from mortality / Insecticidal effect on rice leafroller (Test Example 3), judged grade: rice lamina dip; for Insecticidal effect (Test Example 3), judged from mortality: 4 days after inoculation; for Insecticidal effect, Test Example 3: rice lamina immersed; for Insecticidal effect, Test Example 3 / Insecticidal effect on rice leafroller (Test Example 3), judged grade: four days after inoculation; for Insecticidal effect on rice leafroller (Test Example 3), judged grade: third-instar larvae
How it was run: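 Insecticidal effect is judged by a predefined criterion from dead/alive counts four days after infesting air-dried lamina with third-instar larvae, kept on moistened filter paper at 25° C, 70% humidity.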

[3] = third-instar larvae of rice leafroller
[4] = judged by the mortality criterion of Test Example 1
[5] = mortality judged by criterion of Test Example 1
[6] = rice leafroller third-instar larvae

Structure (SMILES)	Insecticidal effect, Test Example 1 [1, 4]	Insecticidal effect, Test Example 3 [2, 3]	Insecticidal effect on diamondback moth (Test Example 1), judged grade [1]	Insecticidal effect on rice leafroller (Test Example 3), judged grade [2]	also measured
Cc1cc(C(F)(F)C(F)(F)F)ccc1NC(=O)c1cccc(Cl)c1C(=O)NCc1ccccc1C(F)(F)F [compound 1523]					Insecticidal effect (Test Example 1), judged from mortality [1]: A (100); Insecticidal effect (Test Example 3), judged from mortality [2, 3]: A (100)
Cc1cc(Oc2ccc(C(F)(F)F)cn2)ccc1NC(=O)c1c(Br)cccc1C(=O)NC(C)C [compound 335]	A (100)	B (99-90)			
CC(C)(C)NC(=O)c1ccccc1C(=O)Nc1ccc(C(F)(F)F)cc1 [compound 928]			A (100)	A (100)	
CC(C)NC(=O)c1cccc([N+](=O)[O-])c1C(=O)Nc1ccc(C(F)(F)F)cc1Cl [compound 740]			A (100)	A (100)	
Cc1cc(SC(C)C)ccc1NC(=O)c1cccc(Cl)c1C(=O)NC(C)C [compound 153]	A (100)	D (79-50)			
CC(C)NC(=O)c1c(F)cccc1C(=O)Nc1ccc2c(c1)OCO2 [compound 528]			A (100)	A (100)	
CCN(CC)C(=O)c1cc(Cl)cc(I)c1C(=O)Nc1ccc(C(F)(F)C(F)(F)F)cc1C [compound 1281]					Insecticidal effect, Test Example 1 [1, 5]: A (100); Insecticidal effect, Test Example 3 [2, 6]: A (100)
CCN(CC)C(=O)c1c(F)cccc1C(=O)Nc1ccc(OC(F)F)cc1C [compound 1528]					Insecticidal effect (Test Example 1), judged from mortality [1]: A (100); Insecticidal effect (Test Example 3), judged from mortality [2, 3]: A (100)
Cc1cc(NC(=O)c2cccc([N+](=O)[O-])c2C(=O)NC(C)C)ccc1Br [compound 680]			A (100)	D (79-50)	
COc1c(C)ccc(NC(=O)c2cccc([N+](=O)[O-])c2C(=O)NC(C)C)c1C [compound 694]			A (100)	A (100)	
CCCNC(=O)c1c(I)cccc1C(=O)Nc1cccc(Cl)c1C [compound 959]					Insecticidal effect, Test Example 1 [1, 5]: A (100); Insecticidal effect, Test Example 3 [2, 6]: A (100)
C=CCON=C(C)c1ccc(NC(=O)c2cccc(I)c2C(=O)NC(C)C)cc1 [compound 1750]					Insecticidal effect (Test Example 1), judged from mortality [1]: A (100); Insecticidal effect (Test Example 3), judged from mortality [2, 3]: A (100)
CC(C)NC(=O)c1ccccc1C(=O)Nc1ccc(SC(F)(F)Br)cc1 [compound 1106]					Insecticidal effect, Test Example 1 [1, 5]: A (100); Insecticidal effect, Test Example 3 [2, 6]: A (100)
CCC(C)NC(=O)c1cccc(I)c1C(=O)Nc1ccc(C(F)(F)C(F)(F)F)cc1C (stereo not drawn) [compound 1008]					Insecticidal effect, Test Example 1 [1, 5]: A (100); Insecticidal effect, Test Example 3 [2, 6]: A (100)
CC(C)CNC(=O)c1ccccc1C(=O)Nc1ccc(C(F)(F)F)cc1 [compound 833]			A (100)	D (79-50)	
CC(C)NC(=O)c1c(I)cccc1C(=O)Nc1ccc2c(c1)OC(F)(F)C2(F)F [compound 1620]					Insecticidal effect (Test Example 1), judged from mortality [1]: A (100); Insecticidal effect (Test Example 3), judged from mortality [2, 3]: A (100)
CC(C)NC(=O)c1ccccc1C(=O)Nc1ccc(C(F)(F)F)cc1Cl [compound 45]	A (100)	A (100)			
COCCNC(=O)c1c(C(=O)Nc2ccc(OC(F)F)cc2C)cccc1[N+](=O)[O-] [compound 872]			A (100)	C (89-80)	
COCOc1ccc(NC(=O)c2ccccc2C(=O)NC(C)C)c(C)c1 [compound 69]	A (100)	A (100)			
Cc1cc(C(F)(F)C(F)(F)C(F)(F)C(F)(F)C(F)(F)C(F)(F)F)ccc1NC(=O)c1c(Cl)cccc1C(=O)NC(C)C [compound 226]	A (100)	A (100)			
Cc1cccc(NC(=O)c2cccc(Br)c2C(=O)NC(C)C)c1C [compound 263]	A (100)	A (100)			

Structure (SMILES)	Insecticidal effect, Test Example 1 [1, 4]	Insecticidal effect, Test Example 3 [2, 3]	Insecticidal effect on diamondback moth (Test Example 1), judged grade [1]	Insecticidal effect on rice leafroller (Test Example 3), judged grade [2]	also measured
CCN(CC)C(=O)c1c(C(=O)Nc2ccc(Cl)cc2C)cccc1[N+](=O)[O-] [compound 1135]					Insecticidal effect, Test Example 1 [1, 5]: A (100); Insecticidal effect, Test Example 3 [2, 6]: A (100)
CC(C)NC(=O)c1c(C(=O)Nc2ccc([S+]([O-])C(F)(F)Br)cc2)cccc1[N+](=O)[O-] (stereo not drawn) [compound 1109]					Insecticidal effect, Test Example 1 [1, 5]: A (100); Insecticidal effect, Test Example 3 [2, 6]: A (100)
CC(C)(C)NC(=O)c1ccccc1C(=O)Nc1ccc2c(c1)OC(F)(F)O2 [compound 1103]					Insecticidal effect, Test Example 1 [1, 5]: A (100); Insecticidal effect, Test Example 3 [2, 6]: A (100)
CC(C)NC(=O)c1cccc(I)c1C(=O)Nc1ccc(OC(F)F)c(F)c1 [compound 448]			A (100)	A (100)	
Cc1ccc(Cl)cc1NC(=O)c1ccc(Cl)cc1C(=O)NC(C)C [compound 178]	A (100)	A (100)			
CCCCc1cc(I)ccc1NC(=O)c1cccc(I)c1C(=O)NC(C)C [compound 966]					Insecticidal effect, Test Example 1 [1, 5]: A (100); Insecticidal effect, Test Example 3 [2, 6]: B (99-90)
CC(C)NC(=O)c1cccc(Cl)c1C(=O)Nc1ccc(C(F)(F)F)cc1Cl [compound 220]	A (100)	A (100)			
Cc1cc(OC(F)(F)C(F)C(F)(F)F)ccc1NC(=O)c1c(I)cccc1C(=O)NC(C)C (stereo not drawn) [compound 456]			A (100)	A (100)	
Cc1cc(C(F)(F)C(F)(F)F)ccc1NC(=O)c1cccc(Cl)c1C(=O)NCCCc1ccccc1 [compound 1331]					Insecticidal effect, Test Example 1 [1, 5]: A (100); Insecticidal effect, Test Example 3 [2, 6]: A (100)
Cc1cc(OC(F)(F)F)ccc1NC(=O)c1c(I)cccc1C(=O)NC(C)C [compound 464]			A (100)	A (100)	
COc1ccc(NC(=O)c2cccc(Cl)c2C(=O)NC(C)C)c(C)c1 [compound 123]	A (100)	A (100)			
CC(C)NC(=O)c1cccc(Cl)c1C(=O)Nc1ccc(OC(F)(F)F)cc1Cl [compound 234]	A (100)	A (100)			
Cc1cc(OCc2ccc(Cl)cc2)ccc1NC(=O)c1ccccc1C(=O)NC(C)C [compound 76]	C (89-80)	B (99-90)			
CCC(COC)NC(=O)c1cccc(I)c1C(=O)Nc1ccc(C(F)(F)C(F)(F)F)cc1C (stereo not drawn) [compound 1014]					Insecticidal effect, Test Example 1 [1, 5]: A (100); Insecticidal effect, Test Example 3 [2, 6]: A (100)
Cc1c(NC(=O)c2c(Br)cccc2C(=O)NC(C)C)ccc(OC(F)F)c1Cl [compound 332]	A (100)	A (100)			
Cc1cc(Sc2ccc(Cl)cc2)ccc1NC(=O)c1c(F)cccc1C(=O)NC(C)C [compound 575]			A (100)	A (100)	
Cc1cc(Oc2ccc(C(F)(F)F)cc2Cl)ccc1NC(=O)c1ccccc1C(=O)NC(C)C [compound 75]	A (100)	A (100)			
Cc1cc(OC(F)F)ccc1NC(=O)c1cccc(OC(F)F)c1C(=O)NC(C)C [compound 774]			A (100)	A (100)	
CCC(C)NC(=O)c1c(Cl)cccc1C(=O)Nc1ccc(OC(F)F)cc1C (stereo not drawn) [compound 836]			A (100)	A (100)	
Cc1c(Cl)cccc1NC(=O)c1c(F)cccc1C(=O)NC(C)C [compound 544]			A (100)	A (100)	
CCCNC(=O)c1cccc(I)c1C(=O)Nc1ccc(C(F)(F)C(F)(F)F)cc1C [compound 1304]					Insecticidal effect, Test Example 1 [1, 5]: A (100); Insecticidal effect, Test Example 3 [2, 6]: A (100)
